Values joined by “and” are separate entries in the source; they are usually repeats but may differ in a detail not shown here. Identical values can stand only once. Like-named read-outs stand apart in the source and are kept apart here.
Tested on: 3D7 P. falciparum parasites
Test: Growth inhibition assay (72 h, LDH activity)
Assay type: cell-based, Plasmodium falciparum
Details: for (av-uRBC) / (DMSO-uRBC) x100 / Growth inhibition, (1 - av / DMSO) x 100: 3D7; for Growth inhibition, (1 - av / DMSO) x 100: Fig 2B source data, per biological replicate; for inhibition at 0.123457 µM: conc 123.457 nM; for inhibition at 0.37037 µM: conc 370.37 nM; for inhibition at 1.11111 µM: conc 1111.11 nM; for inhibition at 3.33333 µM: conc 3333.33 nM; for inhibition at 10 µM: conc 10000 nM
Protocol: Parasite growth assays with inhibitory compounds were performed as per[11] and are fully described in the Supplementary Information. […]
Growth inhibition assays. Synchronised ring-stage parasites (0.3-0.6% parasitemia, 2% haematocrit) were grown for 72 h in a serial-dilution of the compound under […]
and compound 4. Note that M-833 was first purchased from MolPort (MolPort -002-267-916) then made in-house at WEHI: the differences observed in EC50s across experiments are attributed to the different batches of M -833. For some experiments, 0, 0.25 or 2.5 mM of glucosamine (GlcN) was also added. Experiments were set up in technical duplicates or triplicates. Following a freeze -thaw cycle, lactate dehydrogenase (LDH) activity was assessed as an indicator of parasite growt h 5. 30 μL of parasite culture was incubated for 30 min in the dark with 75 μL Malstat mixture (0.1 M Tris pH 9.0, 20 g/L lactic acid, pH 7.5, 0.2% Triton-X100, 0.5 g/L acetylpyridine adenine dinucleotide (APAD, Sigma), 200 μg/mL nitroblue tetrazolium (NBT; Sigma), 1 μg/mL phenozine ethosulfate (PES; Sigma)). Absorbance was then measured at 650 nm, transformed using the formula below, plotted against the logarithm of the concentrations, and a non-linear regression (log(inhibitor) vs. response, variable slope) was calculated using GraphPad Prism to assess the half-inhibitory […]
Growth inhibition % = (1 − average(sample)− average(uRBC)) ∗ 100 […]
The DMSO samples were also used to assess growth of parasite in the presence of 0.25 and 2.5 mM GlcN (normalised by DMSO in 0 mM GlcN). […]

[1] = Plasmodium falciparum, 3D7, 3D7, 0 mM GlcN, read-out: Growth inhibition assay, NORMALISED
[2] = Plasmodium falciparum, 3D7, 3D7, 0.25 mM GlcN, read-out: Growth inhibition assay, NORMALISED

Compound: Cc1cc(Cl)c(S(=O)(=O)N2CCCC2)cc1OCC(=O)NC1CCCCC1 [M-833]
- (av-uRBC) / (DMSO-uRBC) x100 (conc. 82.3045 nM, Biological replicate 2 (2021-11-03)): 97.3382
- (av-uRBC) / (DMSO-uRBC) x100 (conc. 246.914 nM, Biological replicate 1 (2021-10-25)): 38.189
- (av-uRBC) / (DMSO-uRBC) x100 (conc. 246.914 nM, Biological replicate 2 (2021-11-03)): 46.3664
- (av-uRBC) / (DMSO-uRBC) x100 (conc. 740.741 nM, Biological replicate 1 (2021-10-25)): 13.3602
- (av-uRBC) / (DMSO-uRBC) x100 (conc. 740.741 nM, Biological replicate 2 (2021-11-03)): 12.5985
- (av-uRBC) / (DMSO-uRBC) x100 (conc. 2222.22 nM, Biological replicate 1 (2021-10-25)): 9.5843
- (av-uRBC) / (DMSO-uRBC) x100 (conc. 2222.22 nM, Biological replicate 2 (2021-11-03)): 9.9758
- (av-uRBC) / (DMSO-uRBC) x100 (conc. 6666.67 nM, Biological replicate 1 (2021-10-25)): 8.737
- (av-uRBC) / (DMSO-uRBC) x100 (conc. 6666.67 nM, Biological replicate 2 (2021-11-03)): 9.539
- (av-uRBC) / (DMSO-uRBC) x100 (conc. 20000 nM, Biological replicate 1 (2021-10-25)): 8.871
- (av-uRBC) / (DMSO-uRBC) x100 (conc. 20000 nM, Biological replicate 2 (2021-11-03)): 7.978
- Normalised to DMSO (3D7 replicate 1, M-833 0.0390625 uM): 93.8526
- Normalised to DMSO (3D7 replicate 1, M-833 0.078125 uM): 78.1653
- Normalised to DMSO (3D7 replicate 1, M-833 0.15625 uM): 53.0058
- Normalised to DMSO (3D7 replicate 1, M-833 0.3125 uM): 31.7546
- Normalised to DMSO (3D7 replicate 1, M-833 0.625 uM): 15.6331
- Normalised to DMSO (3D7 replicate 1, M-833 1.25 uM): 6.894
- Normalised to DMSO (3D7 replicate 1, M-833 2.5 uM): 4.18
- Normalised to DMSO (3D7 replicate 1, M-833 5 uM): 4.492
- Normalised to DMSO (3D7 replicate 1, M-833 10 uM): 2.7005
- Normalised to DMSO (3D7 replicate 2, M-833 0.0390625 uM (plate column as in replicate 1)): 98.0943
- Normalised to DMSO (3D7 replicate 2, M-833 0.078125 uM (plate column as in replicate 1)): 69.2248
- Normalised to DMSO (3D7 replicate 2, M-833 0.15625 uM (plate column as in replicate 1)): 42.9307
- Normalised to DMSO (3D7 replicate 2, M-833 0.3125 uM (plate column as in replicate 1)): 17.4092
- Normalised to DMSO (3D7 replicate 2, M-833 0.625 uM (plate column as in replicate 1)): 12.6706
- Normalised to DMSO (3D7 replicate 2, M-833 1.25 uM (plate column as in replicate 1)): 9.0394
- Normalised to DMSO (3D7 replicate 2, M-833 2.5 uM (plate column as in replicate 1)): 8.2153
- Normalised to DMSO (3D7 replicate 2, M-833 5 uM (plate column as in replicate 1)): 8.679
- Normalised to DMSO (3D7 replicate 2, M-833 10 uM (plate column as in replicate 1)): 8.859
- Growth inhibition, (1 - av / DMSO) x 100 (M-833 conc 0.00152416 (unit not given)): -18.032% and -5.346% and 12.6336%
- Growth inhibition, (1 - av / DMSO) x 100 (M-833 conc 0.00457247 (unit not given)): -25.7702% and -5.3748% and 10.1353%
- Growth inhibition, (1 - av / DMSO) x 100 (M-833 conc 0.0137174 (unit not given)): -26.0091% and 2.611% and 15.3938%
- Growth inhibition, (1 - av / DMSO) x 100 (M-833 conc 0.0411523 (unit not given)): 13.4703% and 15.2318% and 31.5623%
- Growth inhibition, (1 - av / DMSO) x 100 (M-833 conc 0.123457 (unit not given)): 53.3795% and 44.2845% and 58.2697%
- Growth inhibition, (1 - av / DMSO) x 100 (M-833 conc 0.37037 (unit not given)): 86.6253% and 82.9734% and 89.4611%
- Growth inhibition, (1 - av / DMSO) x 100 (M-833 conc 1.11111 (unit not given)): 95.3188% and 95.9852%
- Growth inhibition, (1 - av / DMSO) x 100 (M-833 conc 3.33333 (unit not given)): 96.9668% and 96.3144% and 96.0397%
- Growth inhibition, (1 - av / DMSO) x 100 (M-833 conc 10 (unit not given)): 97.5639% and 97.303% and 96.0397%
- Normalised to DMSO (M-833 0.0390625 uM, 3D7 replicate 3): 105.125
- Normalised to DMSO (M-833 0.078125 uM, 3D7 replicate 3): 101.149
- Normalised to DMSO (M-833 0.15625 uM, 3D7 replicate 3): 87.6289
- Normalised to DMSO (M-833 0.3125 uM, 3D7 replicate 3): 55.4639
- Normalised to DMSO (M-833 0.625 uM, 3D7 replicate 3): 35.4934
- Normalised to DMSO (M-833 1.25 uM, 3D7 replicate 3): 26.4801
- Normalised to DMSO (M-833 2.5 uM, 3D7 replicate 3): 22.6804
- Normalised to DMSO (M-833 5 uM, 3D7 replicate 3): 16.5832
- Normalised to DMSO (M-833 10 uM, 3D7 replicate 3): 21.9735
- inhibition at 0.0137174 µM (Plasmodium falciparum, 3D7, 3D7, 0 mM GlcN, conc 13.7174 nM, read-out: Growth inhibition assay, NORMALISED): 20.6%
- inhibition at 0.0411523 µM (Plasmodium falciparum, 3D7, 3D7, 0 mM GlcN, conc 41.1523 nM, read-out: Growth inhibition assay, NORMALISED): 44.4%
- inhibition at 0.123457 µM [1]: 79.5%
- inhibition at 0.37037 µM [1]: 90.2%
- inhibition at 1.11111 µM [1]: 91.3%
- inhibition at 3.33333 µM [1]: 93.7%
- inhibition at 10 µM [1]: 94.5%
- inhibition at 0.123457 µM [2]: 77.6%
- inhibition at 0.37037 µM [2]: 91.4%
- inhibition at 1.11111 µM [2]: 95.5%
- inhibition at 3.33333 µM [2]: 94.5%
- inhibition at 10 µM [2]: 92.9%
- inhibition at 0.0390625 µM (Plasmodium falciparum, 3D7, 3D7 replicate 1, M-833 0.0390625 uM): 6.15%

Source: PMC11189555, “Aryl amino acetamides prevent Plasmodium falciparum ring development via targeting the lipid-transfer protein PfSTART1” (Nature Communications, 2024)
